The test system of data set [1] is HepG2 human liver epithelial carcinoma cell line. In words: MTT cytotoxicity, HepG2 liver cancer cells. It is filed as cell-based. As to conditions: for IC50: Homo sapiens, HepG2, MTT, 72 h, 200, 100, 50, 25 μM tested; for cytotoxic effect on HepG2 liver cancer cell line (in words) / selectivity index (SI), HEK-293T IC50 / HepG2 IC50: 72 h; for cytotoxic effect on HepG2 liver cancer cell line (in words): up to 200 μM; for selectivity index (SI), HEK-293T IC50 / HepG2 IC50: IC50 >200 taken as 200. As for the experimental part:
(§1) Compounds (1–15) were screened in two cancer and normal cell lines at concentrations of 200, 100, 50, and 25 μM for 72 h.
(§2) This section of the study was performed following the procedure described in our previous study.[51],[52] The human lung cancer cell line (A549; ATCC CCL-185), human liver cancer cell line (HepG2; ATCC HB-8065), and human normal embryonic kidney cell line (HEK-293T) were cultured in high-glucose Dulbecco’s modified Eagle’s medium supplemented with 10% fetal bovine serum and 1% glutamax. Cells were seeded at a density of 5 × 10^3 cells/well in sterile 96-well plates and incubated for 24 h. Following incubation, the cells were exposed to the prepared compounds (1–15) and cisplatin at 200, 100, 50, and 25 μM concentrations for 72 h. After the incubation period, the medium in the plates was carefully removed and the prepared MTT solution was added to each well of the plates. The plates were incubated for 2 h in an incubator. Absorbance was measured using an Epoch 2 ELISA plate reader at 590 nm. The IC50 values were calculated using GraphPad Prism Software version 5.

Data set [2] has as its system HEK-293T human normal embryonic kidney cell line. The data set can be described thus: MTT toxicity, HEK-293T normal cells. Particulars: 72 h; for IC50: MTT, normal cell line, 200, 100, 50, 25 μM tested; for toxic effect on healthy HEK-293T cells (in words): up to 200 μM. The class given is cell-based. As for the experimental part: as §1, §2
The subject of data set [3] is A549 human lung epithelial carcinoma cell line. In words: MTT cytotoxicity, A549 lung cancer cells. The class given is cell-based. As to conditions: for cytotoxic effect on A549 lung cancer cell line (in words) / selectivity index (SI), HEK-293T IC50 divided by A549 IC50: 72 h; for cytotoxic effect on A549 lung cancer cell line (in words): up to 200 μM; for IC50: MTT, 72 h, 200, 100, 50, 25 μM tested; for selectivity index (SI), HEK-293T IC50 divided by A549 IC50: IC50 >200 taken as 200. As for the experimental part:
as §1, §2

The values below come from publication PMC11191101, “Investigation of Newly Synthesized Fluorinated Isatin-Hydrazones by In Vitro Antiproliferative Activity, Molecular Docking, ADME Analysis, and e-Pharmacophore Modeling” (ACS Omega, 2024).

Structures are written as SMILES. “Also recorded” adds a separate entry of the source.

For `NN=C1C(=O)Nc2ccc(F)cc21` [Compound 1, 5-Fluoro-3-hydrazonoindolin-2-one], the melting point (as a rule, the temperature of the solid-liquid transition) fell in the range of 203 to 204 °C. Also, the IC50 (usually the midpoint of a concentration-inhibition curve) in data set [1] is > 200 µM. Further, the IC50 in data set [2] (Homo sapiens, HEK-293T) is > 200 µM. The “cytotoxic effect on A549 lung cancer cell line (in words)” value in data set [3] is given as “not active”. In addition, the IC50 in data set [3] (Homo sapiens, A549) was > 200 µM.

With `O=C1Nc2ccc(F)cc2C1=NN=Cc1ccccc1` [Compound 2, 5-Fluoro-3-{[benzylidene]hydrazinylidene}indolin-2-one], the melting point was in the range of 229 to 230 °C. The IC50 in data set [1] was > 200 µM. Besides, the IC50 in data set [2] (Homo sapiens, HEK-293T) is > 200 µM. In addition, in data set [3], the “cytotoxic effect on A549 lung cancer cell line (in words)” value was “not active”. In data set [3] (Homo sapiens, A549), the IC50 is > 200 µM.

Regarding `O=C1Nc2ccc(F)cc2C1=NN=Cc1ccc(Br)cc1` [Compound 3, 5-Fluoro-3-{[4-bromobenzylidene]hydrazinylidene}indolin-2-one], the melting point was 262 to 263 °C. Further, the IC50 in data set [1] is > 200 µM. Moreover, the “toxic effect on healthy HEK-293T cells (in words)” value in data set [2] is given as “highly toxic effects”. This compound came in with an IC50 in data set [2] (Homo sapiens, HEK-293T) of 25 µM. In addition, in data set [3], the “cytotoxic effect on A549 lung cancer cell line (in words)” value was “cytotoxic effect” and the “selectivity index (SI), HEK-293T IC50 divided by A549 IC50” value was 0.13. The compound also showed an IC50 in data set [3] (Homo sapiens, A549) of 186 µM.

Compound `O=C1Nc2ccc(F)cc2C1=NN=Cc1ccc(Cl)cc1` [Compound 4, 5-Fluoro-3-{[4-chlorobenzylidene]hydrazinylidene}indolin-2-one] yielded a melting point of 257 to 258 °C. Further, the IC50 in data set [1] was > 200 µM. In addition, in data set [2], the “toxic effect on healthy HEK-293T cells (in words)” value is “toxic effect; also recorded: highly toxic effects”. The compound further registered an IC50 in data set [2] (Homo sapiens, HEK-293T) of 29.3 µM. Also, the “cytotoxic effect on A549 lung cancer cell line (in words)” value in data set [3] is “not active”. The IC50 in data set [3] (Homo sapiens, A549) is > 200 µM.

The compound `O=C1Nc2ccc(F)cc2C1=NN=Cc1ccc(F)cc1` [Compound 5, 5-Fluoro-3-{[4-fluorobenzylidene]hydrazinylidene}indolin-2-one] yielded a melting point of 246 to 248 °C. In data set [1], the “cytotoxic effect on HepG2 liver cancer cell line (in words)” value is recorded as “cytotoxic effects”; the “selectivity index (SI), HEK-293T IC50 / HepG2 IC50” value is 1.78; the IC50 was determined as 108 µM. Also, the “toxic effect on healthy HEK-293T cells (in words)” value in data set [2] was “did not show high toxicity”. The same compound had an IC50 in data set [2] (Homo sapiens, HEK-293T) of 193 µM. The “cytotoxic effect on A549 lung cancer cell line (in words)” value in data set [3] was “not active”. The IC50 in data set [3] (Homo sapiens, A549) was > 200 µM.

In the case of `Cc1ccc(C=NN=C2C(=O)Nc3ccc(F)cc32)cc1` [Compound 6, 5-Fluoro-3-{[4-methylbenzylidene]hydrazinylidene}indolin-2-one], the melting point lay in the range of 241 to 242 °C. In addition, the IC50 in data set [1] is > 200 µM. Besides, the “toxic effect on healthy HEK-293T cells (in words)” value in data set [2] was “toxic effect”. Moreover, in data set [2] (Homo sapiens, HEK-293T), the IC50 stood at 140 µM. In addition, the “cytotoxic effect on A549 lung cancer cell line (in words)” value in data set [3] was “not active”. The IC50 in data set [3] (Homo sapiens, A549) is > 200 µM.

In turn, `COc1ccc(C=NN=C2C(=O)Nc3ccc(F)cc32)cc1` [Compound 7, 5-Fluoro-3-{[4-methoxybenzylidene]hydrazinylidene}indolin-2-one] returned a melting point of 247 to 248 °C. Besides, in data set [1], the “cytotoxic effect on HepG2 liver cancer cell line (in words)” value is “cytotoxic effects”; the “selectivity index (SI), HEK-293T IC50 / HepG2 IC50” value is listed as 1.29; half-maximal inhibition (IC50) was put at 153 µM. Moreover, the IC50 in data set [2] (Homo sapiens, HEK-293T) amounted to 197 µM. For the same compound, the “cytotoxic effect on A549 lung cancer cell line (in words)” value in data set [3] is “not active”. In data set [3] (Homo sapiens, A549), the 50% inhibitory concentration (IC50) was > 200 µM.

The compound `O=C1Nc2ccc(F)cc2C1=NN=Cc1ccc([N+](=O)[O-])cc1` [Compound 8, 5-Fluoro-3-{[4-nitrobenzylidene]hydrazinylidene}indolin-2-one] came in with a melting point of 249 to 251 °C. In data set [1], the “cytotoxic effect on HepG2 liver cancer cell line (in words)” value is reported as “cytotoxic effects”; the “selectivity index (SI), HEK-293T IC50 / HepG2 IC50” value was 0.12; half-maximal inhibition (IC50) required 48.4 µM. In data set [2] (Homo sapiens, HEK-293T), the IC50 is 6.04 µM. Also, in data set [3], the “cytotoxic effect on A549 lung cancer cell line (in words)” value was “cytotoxic effect” and the “selectivity index (SI), HEK-293T IC50 divided by A549 IC50” value is recorded as 0.14. This compound also showed an IC50 in data set [3] (Homo sapiens, A549) of 42.4 µM.

On to `O=C1Nc2ccc(F)cc2C1=NN=Cc1ccccc1O` [Compound 9, 5-Fluoro-3-{[2-hydroxybenzylidene]hydrazinylidene}indolin-2-one], for which the melting point lay in the range of 252 to 253 °C. In data set [1], the IC50 is > 200 µM. Also, the “toxic effect on healthy HEK-293T cells (in words)” value in data set [2] is listed as “toxic effect”. The compound also returned an IC50 in data set [2] (Homo sapiens, HEK-293T) of 142 µM. Moreover, the “cytotoxic effect on A549 lung cancer cell line (in words)” value in data set [3] is “not active”. Also, in data set [3] (Homo sapiens, A549), the IC50 was > 200 µM.

`O=C1Nc2ccc(F)cc2C1=NN=Cc1cccc(O)c1` [Compound 10, 5-Fluoro-3-{[3-hydroxybenzylidene]hydrazinylidene}indolin-2-one] had a melting point of 260 to 261 °C. In data set [1], the “cytotoxic effect on HepG2 liver cancer cell line (in words)” value is recorded as “cytotoxic effects”; the “selectivity index (SI), HEK-293T IC50 / HepG2 IC50” value is on record as 0.52; half-maximal inhibition (IC50) required 166 µM. In data set [2] (Homo sapiens, HEK-293T), this compound gave an IC50 of 87 µM. Besides, in data set [3], the “cytotoxic effect on A549 lung cancer cell line (in words)” value is “cytotoxic effect” and the “selectivity index (SI), HEK-293T IC50 divided by A549 IC50” value was determined as 0.48. The IC50 in data set [3] (Homo sapiens, A549) stood at 180 µM.

`O=C1Nc2ccc(F)cc2C1=NN=Cc1ccc(O)cc1` [Compound 11, 5-Fluoro-3-{[4-hydroxybenzylidene]hydrazinylidene}indolin-2-one] showed a melting point of 275 to 276 °C. Besides, the IC50 in data set [1] is > 200 µM. Moreover, in data set [2] (Homo sapiens, HEK-293T), the IC50 is > 200 µM. Moreover, in data set [3], the “cytotoxic effect on A549 lung cancer cell line (in words)” value is “not active”. The IC50 in data set [3] (Homo sapiens, A549) is > 200 µM.

With `COc1cccc(C=NN=C2C(=O)Nc3ccc(F)cc32)c1O` [Compound 12, 5-Fluoro-3-{[2-hydroxy-3-methoxybenzylidene]hydrazinylidene}indolin-2-one], the melting point lay within 244 to 246 °C. The IC50 in data set [1] was > 200 µM. Besides, the IC50 in data set [2] (Homo sapiens, HEK-293T) is > 200 µM. Besides, in data set [3], the “cytotoxic effect on A549 lung cancer cell line (in words)” value was “cytotoxic effect” and the “selectivity index (SI), HEK-293T IC50 divided by A549 IC50” value was > 1.33. In data set [3] (Homo sapiens, A549), this compound yielded an IC50 of 150 µM.

Compound `COc1ccc(C=NN=C2C(=O)Nc3ccc(F)cc32)c(O)c1` [Compound 13, 5-Fluoro-3-{[2-hydroxy-4-methoxybenzylidene]hydrazinylidene}indolin-2-one] yielded a melting point of 257 to 258 °C. Besides, in data set [1], the IC50 is > 200 µM. For the same compound, in data set [2] (Homo sapiens, HEK-293T), the IC50 was > 200 µM. Moreover, the “cytotoxic effect on A549 lung cancer cell line (in words)” value in data set [3] is reported as “not active”. Further, the IC50 in data set [3] (Homo sapiens, A549) was > 200 µM.

As to `COc1ccc(C=NN=C2C(=O)Nc3ccc(F)cc32)cc1O` [Compound 14, 5-Fluoro-3-{[3-hydroxy-4-methoxybenzylidene]hydrazinylidene}indolin-2-one], the melting point was in the range of 263 to 264 °C. Besides, the IC50 in data set [1] was > 200 µM. The IC50 in data set [2] (Homo sapiens, HEK-293T) was > 200 µM. Further, in data set [3], the “cytotoxic effect on A549 lung cancer cell line (in words)” value was “cytotoxic effect” and the “selectivity index (SI), HEK-293T IC50 divided by A549 IC50” value is reported as > 1.73. In data set [3] (Homo sapiens, A549), this compound yielded a half-maximal inhibitory concentration (IC50) of 115 µM.

With `COc1cc(C=NN=C2C(=O)Nc3ccc(F)cc32)ccc1O` [Compound 15, 5-Fluoro-3-{[4-hydroxy-3-methoxybenzylidene]hydrazinylidene}indolin-2-one], the melting point is 232 to 233 °C. The IC50 in data set [1] was > 200 µM. In data set [2] (Homo sapiens, HEK-293T), the IC50 is > 200 µM. The “cytotoxic effect on A549 lung cancer cell line (in words)” value in data set [3] is “not active”. Also, the IC50 in data set [3] (Homo sapiens, A549) is > 200 µM.

As to `N.N.[Cl][Pt][Cl]` [cisplatin, reference compound], the figures for the IC50 in data set [2] and in data set [3] were 7.48 µM and 4.19 µM, respectively.
